In US20170035884A1, “AQUEOUS GELLING COMPOSITIONS OF SOLUBLE ACTIVE PHARMACEUTICAL PEPTIDES PROVIDING MODIFIED RELEASE” (Ipsen Pharma S.A.S., priority 2012, published 2017):
Structures can show the parent of a compound that is named as a salt. Where two headings read alike, the source gives them in different places.

Experiment: Solubility testing of peptide 1 salts in gelling compositions (HPLC after filtration)
Type: physicochemical
Method: The solubility of the peptide 1 salts in the gelling compositions of Table 1 was evaluated using HPLC analysis after filtration.

SMILES | solubility (38% glycerol gelling composition, in 38% glycerol, read-out: solubility) [mg/mL] | solubility (in 32% PEG 400) [mg/mL]
CC(=O)NC(CCCNC(=N)N)C(=O)N[C@H]1CSSC[C@@H](C(N)=O)NC(=O)[C@H](Cc2c[nH]c3ccccc23)NC(=O)[C@H](CCCNC(=N)N)NC(=O)[C@@H](Cc2ccccc2)NC(=O)[C@H](Cc2cnc[nH]2)NC(=O)[C@@H](C)NC1=O (stereo partly drawn) [peptide 1 acetate salt, Ac-Arg-c(Cys-D-Ala-His-D-Phe-Arg-Trp-Cys)-NH2] | ≥ 100 | ≥ 100
CC(=O)NC(CCCNC(=N)N)C(=O)N[C@H]1CSSC[C@@H](C(N)=O)NC(=O)[C@H](Cc2c[nH]c3ccccc23)NC(=O)[C@H](CCCNC(=N)N)NC(=O)[C@@H](Cc2ccccc2)NC(=O)[C@H](Cc2cnc[nH]2)NC(=O)[C@@H](C)NC1=O (stereo partly drawn) [peptide 1 heptanoate salt, Ac-Arg-c(Cys-D-Ala-His-D-Phe-Arg-Trp-Cys)-NH2] | – | 28.1
